From the NIST ThermoML archive (doi:10.1021/acs.jced.7b00106)
“And” between values parts separate entries of the source, which are not always exact repeats. Identical values can stand only once.

Settings: Hot wire method

FC(F)(F)/C=C/Cl [(E)-1-chloro-3,3,3-trifluoroprop-1-ene]
Settings | thermal conductivity
383.11 K, 7892 kPa, Liquid | 0.06492 W/m/K
383.11 K, 8377 kPa, Liquid | 0.06527 W/m/K
383.11 K, 20088 kPa, Liquid | 0.07252 W/m/K
383.12 K, 7882 kPa, Liquid | 0.06487 W/m/K
383.12 K, 8374 kPa, Liquid | 0.06525 W/m/K
383.12 K, 20102 kPa, Liquid | 0.07254 W/m/K
383.13 K, 1307 kPa, Liquid | 0.05937 W/m/K
383.13 K, 1311 kPa, Liquid | 0.05937 W/m/K
383.13 K, 35551 kPa, Liquid | 0.08007 W/m/K
383.13 K, 35559 kPa, Liquid | 0.08009 W/m/K
383.17 K, 33010 kPa, Liquid | 0.07893 W/m/K
383.17 K, 33031 kPa, Liquid | 0.07897 W/m/K
383.19 K, 6275 kPa, Liquid | 0.06357 W/m/K
383.2 K, 884 kPa, Fluid (supercritical or subcritical phases) | 0.018 W/m/K
383.2 K, 6276 kPa, Liquid | 0.06372 W/m/K
383.2 K, 16814 kPa, Liquid | 0.07066 W/m/K
383.2 K, 16828 kPa, Liquid | 0.07087 W/m/K
383.21 K, 885 kPa, Fluid (supercritical or subcritical phases) | 0.01804 W/m/K
383.21 K, 1198 kPa, Fluid (supercritical or subcritical phases) | 0.01888 W/m/K
383.23 K, 1197 kPa, Fluid (supercritical or subcritical phases) | 0.01891 W/m/K
383.23 K, 28320 kPa, Liquid | 0.07674 W/m/K
383.24 K, 28314 kPa, Liquid | 0.07674 W/m/K
383.25 K, 13728 kPa, Liquid | 0.06881 W/m/K
383.26 K, 13716 kPa, Liquid | 0.0688 W/m/K
383.3 K, 4299 kPa, Liquid | 0.0621 W/m/K
383.3 K, 4304 kPa, Liquid | 0.06207 W/m/K
383.31 K, 24121 kPa, Liquid | 0.07463 W/m/K
383.31 K, 24128 kPa, Liquid | 0.07464 W/m/K
383.34 K, 10966 kPa, Liquid | 0.06703 W/m/K
383.35 K, 10969 kPa, Liquid | 0.06723 W/m/K
383.36 K, 2610 kPa, Liquid | 0.06058 W/m/K
383.36 K, 2618 kPa, Liquid | 0.06063 W/m/K
383.4 K, 20075 kPa, Liquid | 0.07247 W/m/K
383.4 K, 35533 kPa, Liquid | 0.07987 W/m/K
383.4 K, 35549 kPa, Liquid | 0.08004 W/m/K
383.41 K, 7887 kPa, Liquid | 0.06484 W/m/K
383.41 K, 8373 kPa, Liquid | 0.06523 W/m/K
383.41 K, 20088 kPa, Liquid | 0.07251 W/m/K
383.42 K, 999 kPa, Fluid (supercritical or subcritical phases) | 0.01831 W/m/K
383.42 K, 7894 kPa, Liquid | 0.06491 W/m/K
383.42 K, 8391 kPa, Liquid | 0.06529 W/m/K
383.43 K, 1000 kPa, Fluid (supercritical or subcritical phases) | 0.01834 W/m/K
383.44 K, 1304 kPa, Liquid | 0.05936 W/m/K
383.44 K, 1312 kPa, Liquid | 0.05942 W/m/K
383.44 K, 33007 kPa, Liquid | 0.07889 W/m/K
383.45 K, 33003 kPa, Liquid | 0.0789 W/m/K
383.49 K, 16818 kPa, Liquid | 0.07063 W/m/K
383.49 K, 16831 kPa, Liquid | 0.07066 W/m/K
383.5 K, 6277 kPa, Liquid | 0.06367 W/m/K
383.51 K, 6277 kPa, Liquid | 0.06368 W/m/K
383.51 K, 28297 kPa, Liquid | 0.07667 W/m/K
383.52 K, 28321 kPa, Liquid | 0.07671 W/m/K
383.54 K, 1198 kPa, Fluid (supercritical or subcritical phases) | 0.01908 W/m/K
383.55 K, 1198 kPa, Fluid (supercritical or subcritical phases) | 0.01907 W/m/K
383.55 K, 13721 kPa, Liquid | 0.06876 W/m/K
383.56 K, 13735 kPa, Liquid | 0.06881 W/m/K
383.6 K, 24101 kPa, Liquid | 0.07457 W/m/K
383.6 K, 24124 kPa, Liquid | 0.0746 W/m/K
383.61 K, 4288 kPa, Liquid | 0.06216 W/m/K
383.62 K, 4293 kPa, Liquid | 0.06209 W/m/K
383.65 K, 10955 kPa, Liquid | 0.067 W/m/K
383.65 K, 10973 kPa, Liquid | 0.06702 W/m/K
383.68 K, 2612 kPa, Liquid | 0.0606 W/m/K
383.68 K, 2620 kPa, Liquid | 0.06068 W/m/K
383.73 K, 8375 kPa, Liquid | 0.06521 W/m/K
383.73 K, 8381 kPa, Liquid | 0.06538 W/m/K
383.78 K, 999 kPa, Fluid (supercritical or subcritical phases) | 0.01848 W/m/K
401.38 K, 1794 kPa, Fluid (supercritical or subcritical phases) | 0.02085 W/m/K
401.39 K, 1794 kPa, Fluid (supercritical or subcritical phases) | 0.02077 W/m/K
401.48 K, 1714 kPa, Fluid (supercritical or subcritical phases) | 0.0205 W/m/K
401.48 K, 1716 kPa, Fluid (supercritical or subcritical phases) | 0.02045 W/m/K
401.53 K, 1623 kPa, Fluid (supercritical or subcritical phases) | 0.02023 W/m/K
401.56 K, 1795 kPa, Fluid (supercritical or subcritical phases) | 0.02087 W/m/K
401.57 K, 1795 kPa, Fluid (supercritical or subcritical phases) | 0.02094 W/m/K
401.58 K, 1514 kPa, Fluid (supercritical or subcritical phases) | 0.01985 W/m/K
401.58 K, 1515 kPa, Fluid (supercritical or subcritical phases) | 0.01989 W/m/K
401.61 K, 1407 kPa, Fluid (supercritical or subcritical phases) | 0.01962 W/m/K
401.62 K, 1407 kPa, Fluid (supercritical or subcritical phases) | 0.01968 W/m/K
401.65 K, 1306 kPa, Fluid (supercritical or subcritical phases) | 0.01952 W/m/K
401.65 K, 1307 kPa, Fluid (supercritical or subcritical phases) | 0.01951 W/m/K
401.67 K, 1716 kPa, Fluid (supercritical or subcritical phases) | 0.02063 W/m/K
401.69 K, 1203 kPa, Fluid (supercritical or subcritical phases) | 0.01937 W/m/K and 0.01933 W/m/K
401.71 K, 1106 kPa, Fluid (supercritical or subcritical phases) | 0.01926 W/m/K
401.72 K, 1106 kPa, Fluid (supercritical or subcritical phases) | 0.01925 W/m/K
401.72 K, 1623 kPa, Fluid (supercritical or subcritical phases) | 0.0203 W/m/K
401.73 K, 1623 kPa, Fluid (supercritical or subcritical phases) | 0.02026 W/m/K
401.75 K, 847 kPa, Fluid (supercritical or subcritical phases) | 0.01914 W/m/K
401.75 K, 1000 kPa, Fluid (supercritical or subcritical phases) | 0.01916 W/m/K
401.75 K, 1001 kPa, Fluid (supercritical or subcritical phases) | 0.01919 W/m/K
401.76 K, 846 kPa, Fluid (supercritical or subcritical phases) | 0.01915 W/m/K
401.76 K, 1795 kPa, Fluid (supercritical or subcritical phases) | 0.02102 W/m/K
401.76 K, 1796 kPa, Fluid (supercritical or subcritical phases) | 0.02099 W/m/K
401.78 K, 1514 kPa, Fluid (supercritical or subcritical phases) | 0.0199 W/m/K
401.79 K, 1515 kPa, Fluid (supercritical or subcritical phases) | 0.01993 W/m/K
401.82 K, 1408 kPa, Fluid (supercritical or subcritical phases) | 0.01967 W/m/K
401.83 K, 1407 kPa, Fluid (supercritical or subcritical phases) | 0.01973 W/m/K
401.84 K, 675 kPa, Fluid (supercritical or subcritical phases) | 0.01911 W/m/K
401.86 K, 1307 kPa, Fluid (supercritical or subcritical phases) | 0.01952 W/m/K
401.87 K, 1716 kPa, Fluid (supercritical or subcritical phases) | 0.02077 W/m/K
401.88 K, 1715 kPa, Fluid (supercritical or subcritical phases) | 0.02074 W/m/K
401.91 K, 1202 kPa, Fluid (supercritical or subcritical phases) | 0.01943 W/m/K
401.91 K, 1203 kPa, Fluid (supercritical or subcritical phases) | 0.01941 W/m/K
401.93 K, 1622 kPa, Fluid (supercritical or subcritical phases) | 0.02034 W/m/K
401.94 K, 1105 kPa, Fluid (supercritical or subcritical phases) | 0.01929 W/m/K
401.94 K, 1106 kPa, Fluid (supercritical or subcritical phases) | 0.01933 W/m/K
401.94 K, 1624 kPa, Fluid (supercritical or subcritical phases) | 0.02037 W/m/K
401.96 K, 1796 kPa, Fluid (supercritical or subcritical phases) | 0.02117 W/m/K
401.97 K, 1000 kPa, Fluid (supercritical or subcritical phases) | 0.01921 W/m/K
401.97 K, 1001 kPa, Fluid (supercritical or subcritical phases) | 0.01922 W/m/K
401.97 K, 1796 kPa, Fluid (supercritical or subcritical phases) | 0.02115 W/m/K
401.99 K, 847 kPa, Fluid (supercritical or subcritical phases) | 0.01917 W/m/K
402 K, 845 kPa, Fluid (supercritical or subcritical phases) | 0.01916 W/m/K
402 K, 1514 kPa, Fluid (supercritical or subcritical phases) | 0.01998 W/m/K and 0.02002 W/m/K
402.04 K, 1407 kPa, Fluid (supercritical or subcritical phases) | 0.01972 W/m/K
402.04 K, 1408 kPa, Fluid (supercritical or subcritical phases) | 0.01978 W/m/K
402.07 K, 1716 kPa, Fluid (supercritical or subcritical phases) | 0.02086 W/m/K and 0.02091 W/m/K
402.09 K, 674 kPa, Fluid (supercritical or subcritical phases) | 0.0192 W/m/K
402.09 K, 1306 kPa, Fluid (supercritical or subcritical phases) | 0.01958 W/m/K
402.09 K, 1307 kPa, Fluid (supercritical or subcritical phases) | 0.01963 W/m/K
402.12 K, 33574 kPa, Liquid | 0.0762 W/m/K
402.13 K, 1203 kPa, Fluid (supercritical or subcritical phases) | 0.01947 W/m/K
402.14 K, 1203 kPa, Fluid (supercritical or subcritical phases) | 0.01946 W/m/K
402.15 K, 1623 kPa, Fluid (supercritical or subcritical phases) | 0.02048 W/m/K
402.17 K, 1105 kPa, Fluid (supercritical or subcritical phases) | 0.01933 W/m/K and 0.01934 W/m/K
402.19 K, 1796 kPa, Fluid (supercritical or subcritical phases) | 0.02136 W/m/K and 0.02138 W/m/K
402.2 K, 24990 kPa, Liquid | 0.07177 W/m/K
402.2 K, 25009 kPa, Liquid | 0.07171 W/m/K
402.21 K, 1000 kPa, Fluid (supercritical or subcritical phases) | 0.01925 W/m/K
402.22 K, 1851 kPa, Liquid | 0.05439 W/m/K
402.22 K, 1852 kPa, Liquid | 0.05442 W/m/K
402.23 K, 846 kPa, Fluid (supercritical or subcritical phases) | 0.01918 W/m/K
402.23 K, 1515 kPa, Fluid (supercritical or subcritical phases) | 0.02013 W/m/K and 0.02014 W/m/K
402.24 K, 847 kPa, Fluid (supercritical or subcritical phases) | 0.01925 W/m/K
402.25 K, 13371 kPa, Liquid | 0.06482 W/m/K
402.26 K, 13368 kPa, Liquid | 0.06479 W/m/K
402.27 K, 1408 kPa, Fluid (supercritical or subcritical phases) | 0.01984 W/m/K and 0.01988 W/m/K
402.29 K, 21647 kPa, Liquid | 0.06986 W/m/K
402.29 K, 21648 kPa, Liquid | 0.06987 W/m/K
402.31 K, 1715 kPa, Fluid (supercritical or subcritical phases) | 0.02112 W/m/K and 0.02105 W/m/K
402.31 K, 28736 kPa, Liquid | 0.07366 W/m/K
402.31 K, 28755 kPa, Liquid | 0.0737 W/m/K
402.32 K, 5982 kPa, Liquid | 0.0589 W/m/K and 0.05892 W/m/K
402.32 K, 11080 kPa, Liquid | 0.06308 W/m/K
402.32 K, 11097 kPa, Liquid | 0.06313 W/m/K
402.33 K, 1306 kPa, Fluid (supercritical or subcritical phases) | 0.01962 W/m/K and 0.01976 W/m/K
